Reference: patent US8993608B2, “Method for inhibiting topoisomerase II” (Synta Pharmaceuticals Corp., priority 2007, dated 2015)

How the values were obtained:
Her2 = test: Degradation of Her2 in BT-474 cells after treatment (Method 1, SDS-PAGE/immunoblot); format: cell-based, Human; conditions: overnight
Protocol: Human high-Her2 breast carcinoma BT474 (HTB-20), SK-BR-3 (HTB-30) and MCF-7 breast carcinoma (HTB-22) from American Type Culture Collection, Va., USA were grown in Dulbecco's modified Eagle's medium with 4 mM L-glutamine and antibiotics (100 IU/ml penicillin and 100 ug/ml streptomycine;GibcoBRL). To obtain exponential cell growth, cells were trypsinized, counted and seeded at a cell density of 0.5×10^6 cells /ml regularly, every 3 days. All experiments were performed on day 1 after cell passage.
BT-474 cells were treated with 0.5 μM, 2 μM, or 5 μM of 17AAG (a positive control) or 0.5 μM, 2 μM, or 5 μM of Compound 108 or Compound 49 overnight in DMEM medium. After treatment, each cytoplasmic sample was prepared from 1×10^6 cells by incubation of cell lysis buffer (#9803, cell Signaling Technology) on ice for 10 minutes. The resulting supernatant used as the cytosol fractions were dissolved with sample buffer for SDS-PAGE and run on a SDS-PAGE gel, blotted onto a nitrocellulose membrane by using semi-dry transfer. Non-specific binding to nitrocellulose was blocked with 5% skim milk in TBS with 0.5% Tween at roomtemperature for 1 hour, then probed with anti-Her2/ErB2 mAb (rabbit IgG, #2242, Cell Signaling) and anti-Tubulin (T9026, Sigma) as housekeeping control protein. HRP-conjugated goat anti-rabbit IgG (H+L) and HRP-conjugated horse anti-mouse IgG (H+L) were used as secondary Ab (#7074, #7076, Cell Signaling) and LumiGLO reagent, 20× Peroxide (#7003, Cell Signaling) was used for visualization.

Hsp90 protein = test: Malachite Green Assay of ATPase activity of Hsp90 protein; format: biochemical
Protocol: Hsp90 protein was obtained from Stressgen (Cat#SPP-770). Assay buffer: 100 mM Tris-HCl, Ph7.4, 20 mM KCl, 6 mM MgCl2. […] Malachite green reagent was added to the reaction. […] The plate was read by an ELISA reader with an absorbance at 620 nm.

topoisomerase II = target: T1, topoisomerase II (Homo sapiens, UniProt P11388); test: kDNA decatenation assay for inhibition of topoisomerase II; format: biochemical; conditions: 200 nM, lane 8 of FIG. 3
T1 construct: purchased TopoGEN, Inc
T1 sequence (P11388 whole entry): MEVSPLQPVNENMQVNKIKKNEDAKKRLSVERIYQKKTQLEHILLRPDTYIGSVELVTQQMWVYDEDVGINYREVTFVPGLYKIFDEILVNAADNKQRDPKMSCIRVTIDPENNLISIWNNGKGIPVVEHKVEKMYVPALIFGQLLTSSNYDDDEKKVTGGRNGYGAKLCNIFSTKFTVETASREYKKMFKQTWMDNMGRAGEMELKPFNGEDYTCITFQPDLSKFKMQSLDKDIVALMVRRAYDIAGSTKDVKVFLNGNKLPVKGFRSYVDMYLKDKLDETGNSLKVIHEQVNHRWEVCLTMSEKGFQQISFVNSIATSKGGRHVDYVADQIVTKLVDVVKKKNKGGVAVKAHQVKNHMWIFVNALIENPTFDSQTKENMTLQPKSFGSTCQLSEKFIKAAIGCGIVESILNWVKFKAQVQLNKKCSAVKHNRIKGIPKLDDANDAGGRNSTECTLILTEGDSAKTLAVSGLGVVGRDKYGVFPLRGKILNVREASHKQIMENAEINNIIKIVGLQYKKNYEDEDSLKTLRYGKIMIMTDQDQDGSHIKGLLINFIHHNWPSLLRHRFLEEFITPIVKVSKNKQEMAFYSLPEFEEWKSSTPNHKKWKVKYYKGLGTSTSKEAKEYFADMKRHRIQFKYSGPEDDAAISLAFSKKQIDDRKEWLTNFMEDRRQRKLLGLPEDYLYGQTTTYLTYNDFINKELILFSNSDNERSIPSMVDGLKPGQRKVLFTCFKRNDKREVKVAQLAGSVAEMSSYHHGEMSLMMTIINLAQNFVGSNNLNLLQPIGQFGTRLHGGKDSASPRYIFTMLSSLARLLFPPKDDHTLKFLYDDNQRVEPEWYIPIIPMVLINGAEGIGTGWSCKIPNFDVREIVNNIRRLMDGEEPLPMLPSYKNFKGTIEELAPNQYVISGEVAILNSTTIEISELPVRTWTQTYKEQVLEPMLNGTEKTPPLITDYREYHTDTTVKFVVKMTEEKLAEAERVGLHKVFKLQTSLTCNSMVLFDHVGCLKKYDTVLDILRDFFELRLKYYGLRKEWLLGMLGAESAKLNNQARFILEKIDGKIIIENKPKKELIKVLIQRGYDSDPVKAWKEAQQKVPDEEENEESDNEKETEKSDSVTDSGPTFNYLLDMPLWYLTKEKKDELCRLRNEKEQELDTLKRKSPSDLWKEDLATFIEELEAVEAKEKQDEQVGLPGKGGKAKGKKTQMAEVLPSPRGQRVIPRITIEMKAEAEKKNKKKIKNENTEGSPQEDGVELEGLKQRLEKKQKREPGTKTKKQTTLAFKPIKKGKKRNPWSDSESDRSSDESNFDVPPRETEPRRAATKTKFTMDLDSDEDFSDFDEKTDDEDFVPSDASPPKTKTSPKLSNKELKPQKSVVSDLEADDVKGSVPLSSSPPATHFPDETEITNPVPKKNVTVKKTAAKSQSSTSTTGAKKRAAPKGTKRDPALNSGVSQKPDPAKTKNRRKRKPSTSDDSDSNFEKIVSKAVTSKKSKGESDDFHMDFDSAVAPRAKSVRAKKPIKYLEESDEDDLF
Protocol: The ability of compounds of the invention to inhibit the activity of topoisomerase II was examined with a kDNA decatenation assay (TopoGEN, Inc. Port Orange, Fla.). Substrate kDNA was mixed with compounds and incubated at 37° C. for 30 min. The reaction was stop by adding ⅕ volume of stop buffer. 20 μl of the reaction was loaded on 1% agarose gel. Image of decatenation of kDNA by compounds was taken by Kodak Image Station 440.
In the presence of topoisomerase II, decatenated nicked and circular kDNAs are located at the bottom of the gel. […] Table 9 indicates the ability of compounds of the invention to inhibit the activity of topoisomease II.

human topo II = human topo II (Homo sapiens, UniProt P11388); conditions: Gadelle et al., Biochemical Pharmacology (2006); cited from earlier work
Chain of human topo II (P11388 whole entry): as above

SMILES	degradation of Her2 (Her2; 0.5 μM)	degradation of Her2 (Her2; 2 μM)	degradation of Her2 (Her2; 5 μM)	inhibition of ATPase activity of Hsp90 (Hsp90 protein; 4 μM)	inhibition of ATPase activity of Hsp90 (Hsp90 protein; 40 μM)	inhibition of the activity of topoisomerase II (topoisomerase II)	inhibition of the activity of human topo II (human topo II)
CCc1cc(-c2nnc(S)n2-c2cccc3ccccc23)c(O)cc1O [Compound 49, 3-(2,4-Dihydroxy-5-ethyl-phenyl)-4-(naphthalen-1-yl)-5-mercapto-triazole]	partial degradated	complete degradation	complete degradation				
Oc1ccc(-c2nnc(S)n2-c2cccc3ccccc23)c(O)c1 [Compound 108, 3-(2,4-Dihydroxy-phenyl)-4-(naphthalen-1-yl)-5-mercapto-triazole]	partially degradated	partially degradated	almost completely degraded	significant inhibition	even greater inhibition of ATPase activity of Hsp90 than geldanamycin		
C[C@@H]1C[C@H]2O[C@@H]2/C=C\C=C\C(=O)Cc2c(Cl)c(O)cc(O)c2C(=O)O1 [radicicol]						completely inhibits the activity of topoisomerase II	can inhibit the activity of human topo II
